Key:
U251-MG brain tumors = assay: Intracranial U251-MG xenograft in SCID mice; format: in vivo
Experimental: After sacrifice, brain tissue was removed, embedded with paraffin and sectioned (10 μm thick). Sections were stained using hemotoxylin and eosin. Magnifications are 1×, 4× and 20× as indicated.
In these studies, 10^6 U251-MG cells were injected directly into the right hemisphere of thirty SCID mice (FIGS. 27A-C). […] On sacrifice of the animals, the brain of each mouse was sectioned and stained with hemotoxylin and eosin. Do to the nature of the study, no difference in survival between the three groups was noted.

U87-MG cells [1] = assay: Regulatory volume increase after osmotic shrinkage, Coulter counter; format: cell-based, human; conditions: 80 nM PcTX1; 450 mOsM/kg
Experimental: U87-MG cells were mechanically dispersed, washed, and resuspended in PBS. At t=2-3 min, the osmolality of the bathing medium was increased to 450 mOsM/kg by the addition of NaCl from a 3M stock solution.

U87-MG cells [2] = assay: Cell growth in culture; format: cell-based, human; conditions: 80 nM PcTX1
D54-MG glioma cells = assay: Transwell Migration Assay, D54-MG cells; format: cell-based, human; conditions: 3 h, vitronectin
Experimental: 5-8 μm polycarbonate Transwell filters were coated on the lower surface with or vitronectin ([…] in PBS). […] of D54MG cells (400,000 cells/ml were added to the upper chamber), in the presence or absence of benzamil, and migration was allowed to proceed for 3 hours. Migration was determined according to standard procedures (120). N-amidino-3,5-diamino-pyrazinecarboxamide was used as a control.
To begin to investigate the role of the inward Na^+ conductance in the invasive behavior of tumor cells, a Transwell Migration Assay was used to assess cell chemotaxis and invasiveness (FIG. 17). D54-MG cells were plated on the upper side of a filter insert perforated with 5-8 μm holes, and induced to migrate through these pores toward the extracellular matrix protein vitronectin (coated on the underside of the filter). Benzamil, at 10, 20, 50, or 100 μM, was added to both chambers at time 0. After a 3 h migration time, cells were fixed, stained with crystal violet, and counted. BSA-coated filter inserts were used as negative controls. […]
Approximately 10,000 cells were added to the upper side of a filter insert perforated with 5-8 μm holes, and induced to migrate through these pores toward the extracellular matrix protein vitronectin (coated on the underside of the filter). […] Cells were counted on an inverted microscope, averaging five fields per Transwell chamber. […]

primary human astrocytes = assay: Transwell Migration Assay, primary human astrocytes; format: cell-based
Experimental: Approximately 10,000 cells were added to the upper side of a filter insert perforated with 5-8 μm holes, and induced to migrate through these pores toward the extracellular matrix protein vitronectin (coated on the underside of the filter). PcTX1 or control scrambled PcTX1 peptide was added to each compartment at the same time as the cells. BSA-coated filter inserts were used as negative controls. After 3 h, cells were fixed with 4% paraformaldehyde, and subsequently stained with crystal violet. Cells were counted on an inverted microscope, averaging five fields per Transwell chamber. Four-to-ten chambers were used under each condition.

[3] = system: inward currents in D54-MG glioma cells; assay: Whole-cell patch clamp, D54-MG glioma cells; format: cell-based, human; conditions: 100 μM amiloride
Experimental: FIGS. 7A-7C show representative whole-cell patch clamp recordings.
The amiloride-sensitive inward Na^+ currents are measured regardless of whether ASIC2 is absent or present (FIGS. 7A-D). Whole-cell patch clamp recordings were obtained from U87-MG, SK-MG, and D54-MG glioma cells in the basal state. […] This inhibition of the inward current occurred regardless of the absence or presence of ASIC2 mRNA (FIG. 7D) (as detected by RT-PCR as described above).

ASIC1 = target: T1, ASIC1 (Homo sapiens, UniProt P78348); assay: Wild-type ASIC1 in planar lipid bilayers, single channel recording; format: biochemical; conditions: amiloride; bilayers
T1 sequence (P78348 1-528): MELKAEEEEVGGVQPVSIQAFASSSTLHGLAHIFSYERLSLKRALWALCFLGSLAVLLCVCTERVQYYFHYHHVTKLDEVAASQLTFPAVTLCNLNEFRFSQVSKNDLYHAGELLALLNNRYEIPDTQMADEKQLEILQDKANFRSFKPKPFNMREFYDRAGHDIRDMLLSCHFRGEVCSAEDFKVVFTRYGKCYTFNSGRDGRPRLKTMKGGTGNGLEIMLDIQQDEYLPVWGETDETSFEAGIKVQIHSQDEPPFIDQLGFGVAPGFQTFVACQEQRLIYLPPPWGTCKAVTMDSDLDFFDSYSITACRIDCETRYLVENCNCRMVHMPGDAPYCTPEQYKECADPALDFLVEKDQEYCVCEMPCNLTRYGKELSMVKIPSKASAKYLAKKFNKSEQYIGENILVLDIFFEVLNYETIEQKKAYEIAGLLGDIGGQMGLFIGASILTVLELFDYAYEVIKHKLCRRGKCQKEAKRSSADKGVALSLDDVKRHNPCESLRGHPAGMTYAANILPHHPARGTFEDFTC
Experimental: An expanded time scale is shown below each trace.
Wild-type ASIC1 incorporated into planar lipid bilayers at neutral pH or at acidic extracellular pH was also examined.
(§1) Membrane potential was held at −60 mV, and the pHo was step decreased to 4.0 for 10 s, and then returned to 7.4 for 30 s before repeating the sequence.
Control single channel were record for ASIC1 containing channels in bilayers bathed with symmetrical 100 mM NaCl, 10 mM MOPS, pH 6.2. Holding potential was +100 mV referred to the virtually grounded trans chamber. For illustration purposes, data shown were digitally filtered at 100 Hz using pCLAMP software (Axon Instruments) subsequent to acquisition of the analog signal filtered at 300 Hz with an 8-pole Bessel filter before acquisition at 1 ms per point. An expanded time scale is shown below each trace (FIG. 21).
Representative dwell-time histograms were constructed following the events analyses performed using pCLAMP software (Axon Instruments) on single channel recordings of 10 min in duration filtered at 300 Hz with an 8-pole Bessel filter before acquisition at 1 ms per point using pCLAMP software and hardware. The event detection thresholds were 50% in amplitude of transition between closed and open states, and 3 ms in duration. Closed and open time constants shown were determined by fitting the closed and open time histograms to the probability density function (Sigworth and Sine, 1987), and using the Simplex least square routine of pSTAT. Number of bins per decade in all histograms was 16.

[4] = target: T2, combination of ASIC1 and ASIC2 (Homo sapiens, UniProt P78348+Q16515); assay: Acid-activated currents in voltage-clamped Xenopus oocytes expressing ASIC1 and ASIC2; format: cell-based; conditions: 400 μM amiloride; pHo 4.0; −60 mV
T2 construct: expressed in transfected cells; host or cells: Xenopus oocytes (cRNA injection)
From the text: FIGS. 8A-C show acid-activated ASIC currents in Xenopus oocytes. ASIC 2 (FIG. 8A), ASIC1 (FIG. 8B) and the combination of ASIC2 and ASIC1 (FIG. 8C) were examined. […] Each oocyte served as its own control.
as §1
Xenopus oocytes were used to express ASIC1 and ASIC2 mRNA individually and in combination. Oocyte preparation, cRNA injection, and two-electrode voltage clamp recordings were performed as described (33,67-69).
as §1

T2 sequence (Q16515 whole entry, one chain of several): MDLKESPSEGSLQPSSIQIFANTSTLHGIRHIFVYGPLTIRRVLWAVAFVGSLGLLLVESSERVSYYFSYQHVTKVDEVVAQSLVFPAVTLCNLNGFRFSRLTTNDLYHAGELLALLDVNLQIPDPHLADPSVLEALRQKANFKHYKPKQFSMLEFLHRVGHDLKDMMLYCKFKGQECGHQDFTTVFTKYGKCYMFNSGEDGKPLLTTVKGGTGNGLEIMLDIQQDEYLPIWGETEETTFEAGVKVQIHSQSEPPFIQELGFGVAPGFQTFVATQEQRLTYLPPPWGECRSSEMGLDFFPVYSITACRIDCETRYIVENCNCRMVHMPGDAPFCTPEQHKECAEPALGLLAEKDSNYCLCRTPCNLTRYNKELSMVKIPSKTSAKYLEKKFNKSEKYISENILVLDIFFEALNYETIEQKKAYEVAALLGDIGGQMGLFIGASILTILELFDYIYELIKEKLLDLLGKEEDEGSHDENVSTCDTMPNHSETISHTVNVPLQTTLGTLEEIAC

Row | Compound | survival (U251-MG brain tumors; between the three groups) | tumor foci within the injected hemisphere (U251-MG brain tumors; injection once a week for three weeks) | tumor margins (U251-MG brain tumors; injection once a week for three weeks, 20× the in vitro inhibitory dose, versus saline or scrambled peptide) | volume recovery after shrinkage (U87-MG cells [1]) | growth of cells in culture (U87-MG cells [2]) | diminished ability to migrate through the filter (D54-MG glioma cells) [%] | effect on Transwell migration (primary human astrocytes) | inhibition of inward currents [3] | kind of channel block (ASIC1) | inhibition of acid-activated currents [4]
1 | Psalmotoxin 1 [PcTX1] | no difference | one | more clearly delineated | effectively prevented | significantly inhibited | > 90 | no effect | – | – | –
2 | N=C(N)NC(=O)c1nc(Cl)c(N)nc1N [amiloride] | – | – | – | – | – | – | – | inhibited | flickery-block | inhibited

Reference: patent US20070092444A1, “Inhibition of inward sodium currents in cancer” (priority 2003, published 2007)
